Assay results reported in ChEMBL document CHEMBL5131382, “Facile and divergent optimization of chromazonarol enabled the identification of simplified drimane meroterpenoids as novel pharmaceutical leads” (Eur J Med Chem, 2022).

Legend:
Assay type in all cases: functional
Sclerotinia sclerotiorum = assay: Antifungal activity against Sclerotinia sclerotiorum at 150 uM
Rhizoctonia solani = assay: Antifungal activity against Rhizoctonia solani at 150 uM
Fusarium graminearum = assay: Antifungal activity against Fusarium graminearum at 150 uM
Pyricularia oryzae = assay: Antifungal activity against Pyricularia oryzae at 150 uM
Phytophthora capsici = assay: Antifungal activity against Phytophthora capsici at 150 uM

Measured: inhibition at 150 µM

CC1(C)CCC[C@]2(C)[C@H]3Cc4cc(O)ccc4O[C@]3(C)CC[C@@H]12
< 60%: all assays above

CC1(C)CCC[C@]2(C)[C@H]3Cc4cc(OC(=O)c5ccccc5)ccc4O[C@]3(C)CC[C@@H]12
< 60%: all assays above

COc1ccc(C(=O)Oc2ccc3c(c2)C[C@@H]2[C@@]4(C)CCCC(C)(C)[C@@H]4CC[C@@]2(C)O3)cc1
< 60%: all assays above

CC1(C)CCC[C@]2(C)[C@H]3Cc4cc(OC(=O)c5ccccn5)ccc4O[C@]3(C)CC[C@@H]12
< 60%: all assays above

CC1(C)CCC[C@@]2(C)C1CC[C@@]1(C)Oc3ccc(-c4ccncc4)cc3C[C@@H]12 (stereo not given in full)
< 60%: all assays above

CC1(C)CCC[C@]2(C)[C@H]3Cc4cc(OC(=O)c5cccc(F)c5)ccc4O[C@]3(C)CC[C@@H]12
< 60%: all assays above

CC1(C)CCC[C@]2(C)[C@H]3Cc4cc(Oc5cnc6ccccc6c5)ccc4O[C@]3(C)CC[C@@H]12
< 60%: all assays above

CC1(C)CCC[C@]2(C)[C@H]3Cc4cc(OC(=O)c5cccnc5)ccc4O[C@]3(C)CC[C@@H]12
< 60%: all assays above

C#CCOc1ccc2c(c1)C[C@@H]1[C@@]3(C)CCCC(C)(C)[C@@H]3CC[C@@]1(C)O2
< 60%: all assays above

COc1ccc2c(c1)C[C@@H]1[C@@]3(C)CCCC(C)(C)[C@@H]3CC[C@@]1(C)O2
< 60%: all assays above

CC1(C)CCC[C@@]2(C)C1CC[C@@]1(C)Oc3ccc(OC(=O)Nc4ccc(F)cc4)cc3C[C@@H]12 (stereo not given in full)
< 60%: all assays above

CC1(C)CCC[C@]2(C)[C@H]3Cc4cc(Oc5ccccn5)ccc4O[C@]3(C)CC[C@@H]12
< 60%: all assays above

CC1(C)CCC[C@]2(C)[C@H]3Cc4cc(OC(=O)c5ccc(F)cc5)ccc4O[C@]3(C)CC[C@@H]12
< 60%: all assays above

CC1(C)CCC[C@@]2(C)C1CC[C@@]1(C)Oc3ccc(-c4cccnc4)cc3C[C@@H]12 (stereo not given in full)
< 60%: all assays above

COc1ccc(-c2ccc3c(c2)C[C@H]2[C@@](C)(CCC4C(C)(C)CCC[C@@]42C)O3)cc1 (stereo not given in full)
< 60%: all assays above

CC1(C)CCC[C@@]2(C)C1CC[C@@]1(C)Oc3ccc(-c4cnc5ccccc5c4)cc3C[C@@H]12 (stereo not given in full)
< 60%: all assays above

CC1(C)CCC[C@]2(C)[C@H]3Cc4cc(OC(=O)c5cccnc5Cl)ccc4O[C@]3(C)CC[C@@H]12
< 60%: all assays above

CC1(C)CCC[C@]2(C)[C@H]3Cc4cc(Oc5ccccc5)ccc4O[C@]3(C)CC[C@@H]12
< 60%: all assays above

CC(=O)Oc1ccc2c(c1)C[C@@H]1[C@@]3(C)CCCC(C)(C)[C@@H]3CC[C@@]1(C)O2
< 60%: all assays above

CC1(C)CCC[C@@]2(C)C1CC[C@@]1(C)Oc3ccc(-c4ccsc4)cc3C[C@@H]12 (stereo not given in full)
< 60%: all assays above

CC(C)(C)C(=O)Oc1ccc2c(c1)C[C@@H]1[C@@]3(C)CCCC(C)(C)[C@@H]3CC[C@@]1(C)O2
< 60%: all assays above

CC1(C)CCC[C@@]2(C)C1CC[C@@]1(C)Oc3ccc(-c4ccccc4)cc3C[C@@H]12 (stereo not given in full)
< 60%: all assays above

CC1(C)CCC[C@]2(C)[C@H]3Cc4cc(OCc5ccccc5)ccc4O[C@]3(C)CC[C@@H]12
< 60%: all assays above

CC(C)=CCOc1ccc2c(c1)C[C@@H]1[C@@]3(C)CCCC(C)(C)[C@@H]3CC[C@@]1(C)O2
< 60%: all assays above

COc1ccc(NC(=O)Oc2ccc3c(c2)C[C@H]2[C@@](C)(CCC4C(C)(C)CCC[C@@]42C)O3)cc1 (stereo not given in full)
< 60%: all assays above

CC1(C)CCC[C@]2(C)[C@H]3Cc4cc(OC(=O)c5ccc6ccccc6n5)ccc4O[C@]3(C)CC[C@@H]12
< 60%: all assays above

CCCOc1ccc2c(c1)C[C@@H]1[C@@]3(C)CCCC(C)(C)[C@@H]3CC[C@@]1(C)O2
< 60%: all assays above

CCOc1ccc2c(c1)C[C@@H]1[C@@]3(C)CCCC(C)(C)[C@@H]3CC[C@@]1(C)O2
< 60%: all assays above

CC1(C)CCC[C@@]2(C)C1CC[C@@]1(C)Oc3ccc(-c4ccc(F)cc4)cc3C[C@@H]12 (stereo not given in full)
< 60%: all assays above

C=CCOc1ccc2c(c1)C[C@@H]1[C@@]3(C)CCCC(C)(C)[C@@H]3CC[C@@]1(C)O2
< 60%: all assays above

C=CC(=O)Oc1ccc2c(c1)C[C@@H]1[C@@]3(C)CCCC(C)(C)[C@@H]3CC[C@@]1(C)O2
< 60%: all assays above
